Patent US8901118B2, “Compounds and methods for kinase modulation, and indications therefor” (Plexxikon Inc., priority 2010, dated 2014)

Columns and labels:
[1] = target: Fms kinase (Homo sapiens, UniProt P07333); test: Fms kinase biochemical activity assay (AlphaScreen, biotin-(E4Y)10 phosphorylation); settings: 100 μM ATP; read-out: Biochemical Inhibition IC50 Fms
Outline: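 AlphaScreen read-out (PY20 acceptor, streptavidin donor beads, EDTA stop) of biotin-(E4Y)10 phosphorylation, with IC50 taken from the concentration–signal curve. Reaction: 30 nM substrate, 100 μM ATP, 1 ng/well Fms, Hepes pH 7.5 with Mg2+/Mn2+, 5% DMSO, 20 min at 30 °C.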

[2] = target: T1, BCR-FMS BaF3 cells (Homo sapiens, UniProt P07333); test: BaF3 BCR-FMS cell proliferation assay (ATPlite); assay type: cell-based; settings: read-out: Inhibition of Cell Proliferation IC50, BCR/BaF3 Fms
T1 construct: fused on or other part: P11274 (Breakpoint cluster region protein)
T1 sequence (P07333 582-910): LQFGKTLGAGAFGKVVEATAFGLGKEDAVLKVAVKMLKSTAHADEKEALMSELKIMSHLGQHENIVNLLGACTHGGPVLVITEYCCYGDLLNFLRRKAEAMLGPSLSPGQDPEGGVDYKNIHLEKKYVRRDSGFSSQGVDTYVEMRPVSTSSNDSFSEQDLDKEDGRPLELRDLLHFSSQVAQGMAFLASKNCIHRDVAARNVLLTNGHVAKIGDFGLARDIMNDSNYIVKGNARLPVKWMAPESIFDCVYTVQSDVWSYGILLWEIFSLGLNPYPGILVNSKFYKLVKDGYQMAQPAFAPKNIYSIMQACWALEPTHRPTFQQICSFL
Outline: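 IL-3-free growth, 3-day compound exposure (8-point 1:3 titration, top 10 μM, DMSO control), 37 °C 5% CO2. BaF3 10,000 or MV-4-11 25,000 cells/well, plated overnight beforehand. Read-out ATPlite luminescence vs concentration → IC50.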

Chain of Fms kinase (P07333 20-972): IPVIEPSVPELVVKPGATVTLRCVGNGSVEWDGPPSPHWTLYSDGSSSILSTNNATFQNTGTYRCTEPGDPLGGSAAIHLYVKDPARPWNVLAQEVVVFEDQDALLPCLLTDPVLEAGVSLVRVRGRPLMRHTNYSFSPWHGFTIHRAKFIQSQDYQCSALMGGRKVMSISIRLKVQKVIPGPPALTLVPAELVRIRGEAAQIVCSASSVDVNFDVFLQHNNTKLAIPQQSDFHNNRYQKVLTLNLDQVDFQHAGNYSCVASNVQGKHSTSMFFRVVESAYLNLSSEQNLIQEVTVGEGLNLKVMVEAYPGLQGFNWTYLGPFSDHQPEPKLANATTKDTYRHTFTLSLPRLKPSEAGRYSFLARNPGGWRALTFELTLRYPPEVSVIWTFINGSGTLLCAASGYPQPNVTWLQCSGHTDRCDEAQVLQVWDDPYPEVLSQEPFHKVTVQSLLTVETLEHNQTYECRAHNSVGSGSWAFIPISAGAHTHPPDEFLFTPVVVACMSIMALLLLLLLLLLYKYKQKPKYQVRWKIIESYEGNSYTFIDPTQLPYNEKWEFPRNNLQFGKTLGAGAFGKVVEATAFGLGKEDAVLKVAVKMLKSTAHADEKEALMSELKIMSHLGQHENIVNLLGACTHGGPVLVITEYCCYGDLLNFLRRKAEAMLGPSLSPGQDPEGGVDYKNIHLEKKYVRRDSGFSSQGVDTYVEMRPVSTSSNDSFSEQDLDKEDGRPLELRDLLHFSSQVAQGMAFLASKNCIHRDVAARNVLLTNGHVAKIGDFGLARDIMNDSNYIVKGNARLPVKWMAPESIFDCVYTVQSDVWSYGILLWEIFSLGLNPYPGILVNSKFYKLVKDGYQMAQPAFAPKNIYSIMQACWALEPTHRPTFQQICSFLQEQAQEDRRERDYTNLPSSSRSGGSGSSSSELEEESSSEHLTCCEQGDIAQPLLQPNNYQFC

| Compound | IC50 [1] | IC50 [2] |
| --- | --- | --- |
| Cc1cnc2[nH]cc(Cc3ccc(NC4CCCCC4)nc3F)c2c1 [Compound P-3008, cyclohexyl-[6-fluoro-5-(5-methyl-1H-pyrrolo[2,3-b]pyridin-3-ylmethyl)-pyridin-2-yl]-amine] | < 100 nM | < 100 nM |
| CC(C)=CNc1ncnc2[nH]cc(C(=O)c3ccc(NC4CCC(F)(F)CC4)nc3Cl)c12 [Compound P-4047, [2-chloro-6-[(4,4-difluorocyclohexyl)amino]-3-pyridyl]-[4-(2-methylprop-1-enylamino)-7H-pyrrolo[2,3-d]pyrimidin-5-yl]methanone] | > 1000 nM | > 1000 nM |
| Nc1ncnc2[nH]cc(C(=O)c3ccc(Nc4ccc(C5CC5)nc4)nc3F)c12 [Compound P-4048, (4-amino-7H-pyrrolo[2,3-d]pyrimidin-5-yl)-[6-[(6-cyclopropyl-3-pyridyl)amino]-2-fluoro-3-pyridyl]methanone] | < 10 nM | < 10 nM |
| CCNc1ncnc2[nH]cc(C(=O)c3ccc(NC4CCC(F)(F)CC4)nc3Cl)c12 [Compound P-4050, [2-chloro-6-[(4,4-difluorocyclohexyl)amino]-3-pyridyl]-[4-(ethylamino)-7H-pyrrolo[2,3-d]pyrimidin-5-yl]methanone] | < 1000 nM | < 1000 nM |
| O=C(c1cnc(NC2CCC(F)(F)CC2)c(F)c1)c1c[nH]c2ncnc(NCC(F)(F)F)c12 [Compound P-4052, [6-[(4,4-difluorocyclohexyl)amino]-5-fluoro-3-pyridyl]-[4-(2,2,2-trifluoroethylamino)-7H-pyrrolo[2,3-d]pyrimidin-5-yl]methanone] | < 1000 nM | < 1000 nM |
| O=C(c1cnc(NC2CCC(F)(F)CC2)c(F)c1)c1c[nH]c2ncnc(NC3CC3)c12 [Compound P-4053, [4-(cyclopropylamino)-7H-pyrrolo[2,3-d]pyrimidin-5-yl]-[6-[(4,4-difluorocyclohexyl)amino]-5-fluoro-3-pyridyl]methanone] | < 10 nM | < 1000 nM |
| CNc1ncnc2[nH]cc(C(=O)c3cnc(NC4CCC(F)(F)CC4)c(F)c3)c12 [Compound P-4054, [6-[(4,4-difluorocyclohexyl)amino]-5-fluoro-3-pyridyl]-[4-(methylamino)-7H-pyrrolo[2,3-d]pyrimidin-5-yl]methanone] | < 10 nM | < 1000 nM |

Other lines, results leading:

| IC50 [1] | IC50 [2] | Compound |
| --- | --- | --- |
| < 1000 nM | < 1000 nM | Clc1cnc2[nH]cc(Cc3cnc(NC4CCC4)nc3)c2c1 [Compound P-3007, [5-(5-Chloro-1H-pyrrolo[2,3-b]pyridin-3-ylmethyl)-pyrimidin-2-yl]-cyclobutyl-amine] |
| < 100 nM | < 100 nM | O=C(c1ccc(Nc2ccc(C3CC3)nc2)nc1F)c1c[nH]c2ncnc(C3CC3)c12 [Compound P-4040, [6-(6-Cyclopropyl-pyridin-3-ylamino)-2-fluoro-pyridin-3-yl]-(4-cyclopropyl-7H-pyrrolo[2,3-d]pyrimidin-5-yl)-methanone] |
| < 100 nM | < 10 nM | Fc1nc(Nc2ccc(C3CC3)nc2)ccc1Cc1c[nH]c2ncnc(C3CC3)c12 [Compound P-4041, (6-Cyclopropyl-pyridin-3-yl)-[5-(4-cyclopropyl-7H-pyrrolo[2,3-d]pyrimidin-5-ylmethyl)-6-fluoro-pyridin-2-yl]-amine] |
| < 100 nM | < 100 nM | Nc1ncnc2[nH]cc(C(=O)c3ccc(NC4CCC(F)(F)CC4)nc3Cl)c12 [Compound P-4046, (4-amino-7H-pyrrolo[2,3-d]pyrimidin-5-yl)-[2-chloro-6-[(4,4-difluorocyclohexyl)amino]-3-pyridyl]methanone] |
| < 10 nM | < 1000 nM | CC(C)(O)CNc1ncnc2[nH]cc(C(=O)c3ccc(Nc4ccc(C5CC5)nc4)nc3F)c12 [Compound P-4049, [6-[(6-cyclopropyl-3-pyridyl)amino]-2-fluoro-3-pyridyl]-[4-[(2-hydroxy-2-methyl-propyl)amino]-7H-pyrrolo[2,3-d]pyrimidin-5-yl]methanone] |
| < 1000 nM | < 1000 nM | CCNc1ncnc2[nH]cc(C(=O)c3cnc(NC4CCC(F)(F)CC4)c(F)c3)c12 [Compound P-4051, [6-[(4,4-difluorocyclohexyl)amino]-5-fluoro-3-pyridyl]-[4-(ethylamino)-7H-pyrrolo[2,3-d]pyrimidin-5-yl]methanone] |
